Source: patent US20240299376A1, “METHOD OF TREATING A CONDITION USING A […] EFFECTIVE DOSE OF 1-(1-OXO-1,2-DIHYDROISOQUINOLIN-5-YL)-5-(TRIFLUOROMETHYL)-N-(2-(TRIFLUOROMETHYL)PYRIDIN-4-YL)-1H-PYRAZOLE-4-CARBOXAMIDE” (Janssen Pharmaceutica NV, priority 2021, published 2024)
Where two headings read alike, the source gives them in different places.

Legend:
[1] = Single IV dose plasma PK; type: in vivo, rat; details: for C0 / Vd / AUC(0-inf) / clearance / half-life: male, plasma, S-D; for C0 / Vd: Rat; for Vd / AUC(0-inf) / clearance / half-life: iv, 1 mg/kg; for Vd: read-out: Vdss
Description: Single intravenous (IV) dose PK was conducted in mice (two strains), rats, monkeys, and dogs at a dose of 1 mg/kg in 70% PEG400 (PEG400/water 70:30) by bolus injection. The time course for plasma sample was optimized to fully characterize the disposition profile in each species. PK analysis was by non-compartmental method.

[2] = Single oral dose plasma PK in fasted dogs; type: in vivo, dog; details: for bioavailability / AUC(0-inf) / Cmax / Tmax / AUC(0-t) / half-life: beagle, dog, plasma
Excerpt: With the suspension formulation the double-peak phenomenon is even more pronounced.
As observed in rats, dose escalation in dogs resulting in proportional or dose-related exposure with the PEG400 solution was unsuccessful in identifying a vehicle suitable for toxicology studies.

[3] = test system: HBL1 (CD79b/Myd88/A20 mut); assay: Anti-proliferative activity, DLBCL cell line panel; type: cell-based; details: HBL1, 192 h; antiproliferation after 8 days of treatment
Description: (§1) Four ABC-DLBCL cell lines with activating mutations in the canonical NFκB pathway were evaluated (OCI-LY3 (CARD11, MYD88 & A20 mutations), TMD8, HBL1, and OCI-LY10 (CD79B & MYD88 mutations)), which are generally sensitive to NF-κB pathway inhibition. None of the GCB-DLBCL cell lines harbor mutations in the NF-κB pathway. The GCB-DLBCL cell lines served as a negative control to exclude compounds with general cytotoxic effects.
(§2) At concentrations ≥20 μM general cytotoxicity was observed.

[4] = test system: OCI-LY3 (Myd88/CARD11 A20 mut); assay: Anti-proliferative activity, DLBCL cell line panel; type: cell-based; details: Homo sapiens
Description: as §1, §2

[5] = test system: OCI-LY10 human DLBCL xenografts; assay: Antitumor efficacy in established OCI-LY10 human DLBCL xenografts; type: in vivo, NSG mice; details: 3.5 weeks
Description: Tumor volume was calculated using the formula: tumor volume (mm^3)=(Dxd^2/2); where ‘D’ represents the larger diameter, and ‘d’ the smaller diameter of the tumor as determined by caliper measurements. Tumor volume data was graphically represented as the mean tumor volume±SEM.
Percent tumor growth inhibition (TGI) was defined as the difference between mean tumor volumes of the treated and control group, calculated as
where TVc is the mean tumor volume of a given control group and TVt is the mean tumor volume of the treatment group. As defined by National Cancer Institute criteria, ≥60% TGI is considered biologically significant.
Group tumor volumes are graphed as the mean+SEM. Mice were implanted SC on the right flank on Day 0.
OCY-LY10 cells were maintained at 37° C. in a humidified atmosphere (5% CO2, 95% air), in RPMI-1640 medium with GlutaMAX™, supplemented with 10% Fetal Bovine Serum (Heat Inactivated at 57° C.) and 1% Penicillin-Streptomycin. Each mouse received 1×10^6 OCI-LY10 cells in serum-free RPMI-1640 medium with Matrigel in 1:1 ratio in a total volume of 0.2 mL. Cells were implanted SC in the right flank using a 1 mL syringe and a 26-gauge needle. The day of tumor implantation was designated as Day 0.
For study 4, study animals were randomly assigned into treatment groups, when the mean OCI-LY10 tumor volume reached 169 mm^3 (Day 15 post-tumor cell implantation). Treatment was initiated the day after randomization (Day 16). Treatment for the antitumor efficacy study lasted for 24 days until Day 40, when most animals in the Vehicle control group reached ethical tumor volume limits. […] Blood was collected from the retro-orbital sinus and submitted for bioanalytical analysis.

[6] = test system: panel of 91 tumor cell lines; assay: Growth inhibition across various cancer indications; type: cell-based; details: more than 18 tumor indications, no ABC-DLBCL lines
Excerpt: The panel represents cancer cell lines from more than 18 different tumor indications, including breast, colon, lung, ovarian, and blood cancers.

[7] = Sprague-Dawley (S-D), rat, 3M, 1 mg/kg IV in 70% PEG400 (-AAA), mean
[8] = Sprague-Dawley (S-D), rat, 6M, 1 mg/kg IV, dosed as the -ZAF salt
[9] = female, po, 100 mg/kg, 2F, 100 mg/kg PO, 100% PEG400 solution, Study 7
[10] = female, po, 280 mg/kg, 2F, 280 mg/kg PO, 100% PEG400 solution, Study 7
[11] = male, po, 5 mg/kg, 3M (N = 2 used), 5 mg/kg PO, 100% PEG400 solution, Study 1
[12] = male, po, 5 mg/kg, 3M, 5 mg/kg PO, 0.5% HPMC suspension, Study 4
[13] = male, po, 5 mg/kg, 3M, 5 mg/kg PO, -ZAF salt nanosuspension (HPMC:DOSS suspension), Study 5
[14] = male, po, 20 mg/kg, 3M, 20 mg/kg PO, 0.5% HPMC suspension, Study 2
[15] = male, po, 20 mg/kg, 3M, 20 mg/kg PO, 0.5% HPMC suspension, Study 4
[16] = male, po, 20 mg/kg, 3M, 20 mg/kg PO, 100% PEG400 solution, Study 3
[17] = male, po, 20 mg/kg, 3M, 20 mg/kg PO, -ZAF salt nanosuspension (HPMC:DOSS suspension), Study 5
[18] = male, po, 22.5 mg/kg, 3M, 22.5 mg/kg PO, PEG400/PVP VA 90:10 solution, Study 6

O=C(Nc1ccnc(C(F)(F)F)c1)c1cnn(-c2cccc3c(=O)[nH]ccc23)c1C(F)(F)F [Compound A, 1-(1-oxo-1,2-dihydroisoquinolin-5-yl)-5-(trifluoromethyl)-N-[2-(trifluoromethyl)pyridin-4-yl]-1H-pyrazole-4-carboxamide]
C0 ([1]; Sprague-Dawley (S-D), 6M, 1 mg/kg IV, dosed as the -ZAF salt, mean): 1450 ng/mL
Vd [1, 7]: 0.86 L/kg
Vd [1, 8]: 0.622 L/kg
AUC(0-inf) [1, 7]: 7.95 µg·h/mL
clearance [1, 7]: 2.15 mL/min/kg
half-life [1, 7]: 10 h
AUC(0-inf) [1, 8]: 9.78 µg·h/mL
clearance [1, 8]: 1.7 mL/min/kg
half-life [1, 8]: 5.33 h
C0 ([1]; Sprague-Dawley, 3M, 1 mg/kg IV in 70% PEG400 (-AAA), mean): 2200 ng/mL
CL as fraction of liver blood flow (LBF) ([1]; rat, LBF 55.2 mL/min/kg): 1.5%
increase of Cmax or AUC with dose ([2]; Study 7, doses of 100, 280, and 560 mg/kg, PEG400 solution): ≤ 25%
bioavailability ([2]; po, 5 mg/kg, 5 mg/kg PO, -ZAF salt nanosuspension (HPMC:DOSS suspension), Study 5): 12 to 69%
bioavailability ([2]; po, 20 mg/kg, 20 mg/kg PO, 0.5% HPMC suspension, Study 4): 7 to 89%
bioavailability ([2]; po, 20 mg/kg, 20 mg/kg PO, -ZAF salt nanosuspension (HPMC:DOSS suspension), Study 5): 6.7%
bioavailability ([2]; po, 22.5 mg/kg, 22.5 mg/kg PO, PEG400/PVP VA 90:10 solution, Study 6): > 100%
AUC(0-inf) ([2]; po, 560 mg/kg, 560 mg/kg PO, 100% PEG400 solution, Study 7, N = 1): 1760 µg·h/mL
AUC(0-inf) [2, 9]: 1360 µg·h/mL
Cmax [2, 9]: 24300 ng/mL
Tmax [2, 9]: 15.5 h
AUC(0-t) ([2]; female, po, 100 mg/kg, 2F, 100 mg/kg PO, 100% PEG400 solution, Study 7, Tlast = 96 hours): 1250 µg·h/mL
AUC(0-inf) [2, 10]: 1680 µg·h/mL
Cmax [2, 10]: 30600 ng/mL
AUC(0-t) ([2]; female, po, 280 mg/kg, 2F, 280 mg/kg PO, 100% PEG400 solution, Study 7, Tlast = 96 hours): 1510 µg·h/mL
Tmax ([2]; female, po, 280 mg/kg, 2F, 280 mg/kg PO, 100% PEG400 solution, Study 7, median): 24 h
Cmax ([2]; female, po, 280 mg/kg, 2F, 280 mg/kg PO, PEG400/PVP VA 90:10 solution, Study 7): 106000 ng/mL
AUC(0-t) ([2]; female, po, 280 mg/kg, 2F, 280 mg/kg PO, PEG400/PVP VA 90:10 solution, Study 7, Tlast = 96 hours): 1970 µg·h/mL
Tmax ([2]; female, po, 280 mg/kg, 2F, 280 mg/kg PO, PEG400/PVP VA 90:10 solution, Study 7, median): 24 h
Cmax ([2]; female, po, 480 mg/kg, 2F, 480 mg/kg PO, PEG400/PVP VA 90:10 solution, Study 7): 76600 ng/mL
AUC(0-t) ([2]; female, po, 480 mg/kg, 2F, 480 mg/kg PO, PEG400/PVP VA 90:10 solution, Study 7, Tlast = 96 hours): 1510 µg·h/mL
Tmax ([2]; female, po, 480 mg/kg, 2F, 480 mg/kg PO, PEG400/PVP VA 90:10 solution, Study 7, median): 27.5 h
Cmax ([2]; female, po, 560 mg/kg, 2F, 560 mg/kg PO, 100% PEG400 solution, Study 7): 31800 ng/mL
AUC(0-t) ([2]; female, po, 560 mg/kg, 2F, 560 mg/kg PO, 100% PEG400 solution, Study 7, Tlast = 96 hours): 2010 µg·h/mL
Tmax ([2]; female, po, 560 mg/kg, 2F, 560 mg/kg PO, 100% PEG400 solution, Study 7, median): 24 h
increase in Cmax and AUC ([2]; from 22.5 to 280 mg/kg, PVP VA in PEG400 solution): approximately 5 fold
bioavailability ([2]; male, oral, 5 mg/kg, 5 mg/kg PO, 100% PEG400 solution, Study 1, calculated using the IV data from Study 1): > 100%
bioavailability ([2]; male, po, 5 mg/kg, 5 mg/kg PO, 0.5% HPMC suspension, Study 4): 14 to 66%
AUC(0-inf) [2, 11]: 146 µg·h/mL
Cmax [2, 11]: 6150 ng/mL
Tmax [2, 11]: 2 h
half-life [2, 11]: 17.3 h
AUC(0-t) ([2]; male, po, 5 mg/kg, 3M (N = 2 used), 5 mg/kg PO, 100% PEG400 solution, Study 1, Tlast = 48 hours): 143 µg·h/mL
AUC(0-inf) [2, 12]: 30.7 µg·h/mL
AUC(0-t) [2, 12]: 43.7 µg·h/mL
Cmax [2, 12]: 2030 ng/mL
Tmax [2, 12]: 9 h
half-life [2, 12]: 21.8 h
AUC(0-inf) [2, 13]: 26.4 µg·h/mL
AUC(0-t) [2, 13]: 43.7 µg·h/mL
Cmax [2, 13]: 1450 ng/mL
Tmax [2, 13]: 9.33 h
half-life [2, 13]: 11.5 h
AUC(0-inf) ([2]; male, po, 20 mg/kg, 20 mg/kg PO, 0.5% HPMC suspension, Study 2, N = 1 animal with low exposure): 15.6 µg·h/mL
bioavailability ([2]; male, po, 20 mg/kg, 20 mg/kg PO, 100% PEG400 solution, Study 3): 33 to 72%
Cmax [2, 14]: 4010 ng/mL
Tmax [2, 14]: 16.7 h
half-life [2, 14]: 17.8 h
AUC(0-t) ([2]; male, po, 20 mg/kg, 3M, 20 mg/kg PO, 0.5% HPMC suspension, Study 2, Tlast = 72 hours): 153 µg·h/mL
AUC(0-inf) [2, 15]: 31.8 µg·h/mL
AUC(0-t) [2, 15]: 160 µg·h/mL
Cmax [2, 15]: 4080 ng/mL
Tmax [2, 15]: 16.7 h
half-life [2, 15]: 14.3 h
AUC(0-inf) [2, 16]: 224 µg·h/mL
Cmax [2, 16]: 5770 ng/mL
Tmax [2, 16]: 8.33 h
half-life [2, 16]: 18.6 h
AUC(0-t) ([2]; male, po, 20 mg/kg, 3M, 20 mg/kg PO, 100% PEG400 solution, Study 3, Tlast = 96 hours): 215 µg·h/mL
AUC(0-inf) [2, 17]: 87 µg·h/mL
AUC(0-t) [2, 17]: 111 µg·h/mL
Cmax [2, 17]: 3510 ng/mL
Tmax [2, 17]: 9 h
half-life [2, 17]: 16.6 h
AUC(0-inf) [2, 18]: 757 µg·h/mL
Cmax [2, 18]: 21000 ng/mL
Tmax [2, 18]: 1.25 h
half-life [2, 18]: 14.1 h
AUC(0-t) ([2]; male, po, 22.5 mg/kg, 3M, 22.5 mg/kg PO, PEG400/PVP VA 90:10 solution, Study 6, Tlast = 96 hours): 741 µg·h/mL
IC50 [3]: 547 nM
IC50 ([4]; OCI-Ly3, 192 h, antiproliferation after 8 days of treatment): 496 nM
IC50 ([4]; Proliferation, OCI-LY3): 496 ± 262 nM
TGI ([5]; 3 mg/kg BID PO, not statistically significant): 11%
TGI ([5]; 10 mg/kg BID PO): 41%
TGI ([5]; 30 mg/kg BID PO): 54%
TGI ([5]; 100 mg/kg BID PO): 62%
sensitivity of tumor cell lines (cell viability) [6]: no single cell lines showing sensitivity to Compound A up to 20 μM
